PubChem BioAssay (NCI)
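Here, GI50 denotes the concentration required for 50% inhibition of growth. The concentration for full growth arrest is given as TGI.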

Legend:
Experiment in all cases: inhibition of tumour cell growth, NCI panel, 384-well format
[1] = tested on: 786-0 renal
[2] = tested on: A498 renal
[3] = tested on: A549 NSCLC
[4] = tested on: ACHN renal
[5] = tested on: BT-549 breast
[6] = tested on: CAKI-1 renal
[7] = tested on: CCRF-CEM leukemia
[8] = tested on: COLO 205 colon
[9] = tested on: DU-145 prostate
[10] = tested on: EKVX NSCLC
[11] = tested on: HCC-2998 colon
[12] = tested on: HCT-15 colon
[13] = tested on: HL-60(TB) leukemia
[14] = tested on: HOP-62 NSCLC
[15] = tested on: HOP-92 NSCLC
[16] = tested on: HS 578T breast
[17] = tested on: HT29 colon
[18] = tested on: IGROV1 ovarian
[19] = tested on: K-562 leukemia
[20] = tested on: KM12 colon
[21] = tested on: LOX IMVI melanoma
[22] = tested on: M14 melanoma
[23] = tested on: MALME-3M melanoma
[24] = tested on: MCF7 breast
[25] = tested on: MDA-MB-231 breast
[26] = tested on: MDA-MB-435 melanoma
[27] = tested on: MDA-MB-468 breast
[28] = tested on: MOLT-4 leukemia
[29] = tested on: NCI-H226 lung
[30] = tested on: NCI-H23 lung
[31] = tested on: NCI-H322M lung
[32] = tested on: NCI-H460 NSCLC
[33] = tested on: NCI-H522 lung
[34] = tested on: NCI/ADR-RES ovarian
[35] = tested on: OVCAR-3 ovarian
[36] = tested on: OVCAR-4 ovarian
[37] = tested on: OVCAR-5 ovarian
[38] = tested on: OVCAR-8 ovarian
[39] = tested on: PC-3 prostate
[40] = tested on: RPMI-8226 leukemia
[41] = tested on: RXF 393 renal
[42] = tested on: SF-268 CNS
[43] = tested on: SF-295 CNS
[44] = tested on: SF-539 CNS
[45] = tested on: SK-MEL-28 melanoma
[46] = tested on: SK-MEL-5 melanoma
[47] = tested on: SK-OV-3 ovarian
[48] = tested on: SN12C renal
[49] = tested on: SNB-19 CNS
[50] = tested on: SNB-75 CNS
[51] = tested on: SR leukemia
[52] = tested on: SW-620 colon
[53] = tested on: T-47D breast
[54] = tested on: TK-10 renal
[55] = tested on: UACC-257 melanoma
[56] = tested on: UACC-62 melanoma
[57] = tested on: UO-31 renal

Work on `Cc1cncc(-c2nc(NCCc3c[nH]c4ccccc34)c3ncn(C(C)C)c3n2)c1` yielded a GI50 [1] of 1.76 µM, a TGI [1] of 3.65 µM and a GI50 [2] of 2.39 µM. For the same compound, the TGI [2] was 6.39 µM, the GI50 [3] was 3.84 µM and the TGI [3] was 14.1 µM. It also gave a GI50 [4] of 4.17 µM, a TGI [4] of 13.5 µM and a GI50 [5] of 4.91 µM. It also gave a TGI [5] of 15.4 µM, a GI50 [6] of 3.96 µM and a TGI [6] of 12.7 µM. It also gave a GI50 [7] of 2.11 µM, a TGI [7] of 4.22 µM and a GI50 [8] of 2.28 µM. It also gave a TGI [8] of 4.29 µM, a GI50 [9] of 3.47 µM and a TGI [9] of 11.1 µM. It also gave a GI50 [10] of 4.24 µM, a TGI [10] of 14 µM and a GI50 [11] of 2.5 µM. For the same compound, the TGI [11] was 5 µM, the GI50 [12] was 1.77 µM and the TGI [12] was 3.29 µM. The GI50 [13] was 1.73 µM, the TGI [13] was 3.15 µM and the GI50 [14] was 2.92 µM. The TGI [14] was 8.22 µM, the GI50 [15] was 3.76 µM and the TGI [15] was 10.5 µM. For the same compound, the GI50 [16] was 2.52 µM, the TGI [16] was 5.41 µM and the GI50 [17] was 1.71 µM. It also gave a TGI [17] of 3.19 µM, a GI50 [18] of 4.19 µM and a TGI [18] of 14.8 µM. For the same compound, the GI50 [19] was 1.89 µM, the TGI [19] was 3.47 µM and the GI50 [20] was 2.07 µM. It also gave a TGI [20] of 4.21 µM, a GI50 [21] of 4.15 µM and a TGI [21] of 13.9 µM. It also gave a GI50 [22] of 2.84 µM, a TGI [22] of 6.11 µM and a GI50 [23] of 1.77 µM. It also gave a TGI [23] of 3.24 µM, a GI50 [24] of 3.42 µM and a TGI [24] of 9.2 µM. It also gave a GI50 [25] of 4.16 µM, a TGI [25] of 12 µM and a GI50 [26] of 5.52 µM. It also gave a TGI [26] of 17.8 µM, a GI50 [27] of 2.21 µM and a TGI [27] of 4.14 µM. The GI50 [28] was 1.87 µM, the TGI [28] was 3.55 µM and the GI50 [29] was 4.34 µM. The TGI [29] was 11.3 µM, the GI50 [30] was 3.81 µM and the TGI [30] was 12.8 µM. The GI50 [31] was 3.06 µM, the TGI [31] was 10.1 µM and the GI50 [32] was 2.26 µM. It also gave a TGI [32] of 4.53 µM, a GI50 [33] of 4.42 µM and a TGI [33] of 13.1 µM. It also gave a GI50 [34] of 3.29 µM, a TGI [34] of 9.08 µM and a GI50 [35] of 4.65 µM. For the same compound, the TGI [35] was 14.3 µM, the GI50 [36] was 3.37 µM and the TGI [36] was 9.2 µM. The GI50 [37] was 2.06 µM, the TGI [37] was 4.73 µM and the GI50 [38] was 4.05 µM. The TGI [38] was 13.6 µM, the GI50 [39] was 3.19 µM and the TGI [39] was 8.62 µM. For the same compound, the GI50 [40] was 2.2 µM, the TGI [40] was 3.78 µM and the GI50 [41] was 1.96 µM. It also gave a TGI [41] of 4.63 µM, a GI50 [42] of 3.93 µM and a TGI [42] of 12.8 µM. For the same compound, the GI50 [43] was 1.93 µM, the TGI [43] was 3.93 µM and the GI50 [44] was 2.63 µM. It also gave a TGI [44] of 7.18 µM, a GI50 [45] of 1.89 µM and a TGI [45] of 3.94 µM. For the same compound, the GI50 [46] was 2.5 µM, the TGI [46] was 7.39 µM and the GI50 [47] was 3.99 µM. The TGI [47] was 12.3 µM, the GI50 [48] was 5.32 µM and the TGI [48] was 17.2 µM. For the same compound, the GI50 [49] was 5.5 µM, the TGI [49] was 18.8 µM and the GI50 [50] was 4.46 µM. For the same compound, the TGI [50] was 16.8 µM, the GI50 [51] was 1.47 µM and the TGI [51] was 3.02 µM. For the same compound, the GI50 [52] was 2.11 µM, the TGI [52] was 3.74 µM and the GI50 [53] was 3.57 µM. The TGI [53] was 10.9 µM, the GI50 [54] was 3.12 µM and the TGI [54] was 13.2 µM. For the same compound, the GI50 [55] was 2.04 µM, the TGI [55] was 3.54 µM and the GI50 [56] was 2.56 µM. The TGI [56] was 5.81 µM, the GI50 [57] was 4.64 µM and the TGI [57] was 17.3 µM.
